Columns and labels:
[1] = tested on: binding between IgE in serum sample U and dust mite antigens; assay: IgE inhibition experiment, conventional protein array spotted with dust mite antigens; set-up: species or system human
Description: (§1) The sample serum is diluted with diluent buffer containing adequate amount of BSA, no-fat milk, and Tween-20. The peptide array of the present embodiment is incubated with each serum sample respectively at 37° C. for 1 hour. A wash buffer containing Tween-20 is added to the reaction area of the peptide array to wash out extra serum. Anti-human IgE antibody labeled with Cy3 is added to the reaction area of the peptide array. The anti-human IgE with Cy3 binds on antibodies in the sample serum that binds to the peptide probes in the reaction area. The peptide array is then incubated at 37° C. for 1 hour in darkness. The diluent, wash buffer, and anti-human IgE with Cy3 is provided by EBS Immunoflourescence Specific IgE Assay. A laser scanner with FD532 nm detector is utilized to scan the peptide array after incubation. The intensities of FD532 nm of each peptide probe on the peptide array can be obtained. For protein arrays the positive values are highlighted, while for peptide arrays the numbers (No.) of the peptide probes showing positive values are listed. […] For the peptide array of the present embodiment, although all of the peptide probes are derived from antigens of house dust mites, only a number of probes are bound to the serum samples and generate positive results. Generally, the serum sample U is incubated with different concentration Der-p10-17 peptide (#60) for 30 minutes, and then serum sample U is transferred on conventional protein arrays spotted with crab, shrimp, dust mite and house dust mite antigens. In each of these arrays, different reaction blocks represent serum sample U incubated with different concentrations of Der-p10-17 (#60), where X1 is serum sample U incubated with the original concentration of Der-p10-17 (#60). X2 is serum sample U incubated with 2-fold dilution of the original concentration, X4 is serum sample U incubated with a 4-fold dilution and X8 is serum sample U incubated with an 8-fold dilution. The experiment protocol in Table 5A-5D and FIGS. 12A-12D may refer to the IgE immunofluorescence assay used in Table 4. The […] nm intensity value of crabs, shrimps, dust mites, and house mites are shown respectively. Various concentrations of Der-p10-17 peptide (#60) are tested to evaluate the dependence of inhibition on the inhibitor peptide concentration. The results of the IgE inhibition experiments are presented in FIGS. 12A-12D and Tables 5A-5D.

[2] = tested on: binding between IgE in serum sample U and crab antigens; assay: IgE inhibition experiment, conventional protein array spotted with crab antigens; set-up: species or system human
Description: (§2) The sample serum is diluted with diluent buffer containing adequate amount of BSA, no-fat milk, and Tween-20. The peptide array of the present embodiment is incubated with each serum sample respectively at 37° C. for 1 hour. A wash buffer containing Tween-20 is added to the reaction area of the peptide array to wash out extra serum. Anti-human IgE antibody labeled with Cy3 is added to the reaction area of the peptide array. The anti-human IgE with Cy3 binds on antibodies in the sample serum that binds to the peptide probes in the reaction area. The peptide array is then incubated
(§3) at 37° C. for 1 hour in darkness. The diluent, wash buffer, and anti-human IgE with Cy3 is provided by EBS Immunoflourescence Specific IgE Assay. A laser scanner with FD532 nm detector is utilized to scan the peptide array after incubation. The intensities of FD532 nm of each peptide probe on the peptide array can be obtained. For protein arrays the positive values are highlighted, while for peptide arrays the numbers (No.) of the peptide probes showing positive values are listed. […] For the peptide array of the present embodiment, although all of the peptide probes are derived from antigens of house dust mites, only a number of probes are bound to the serum samples and generate positive results.
(§4) Generally, the serum sample U is incubated with different concentration Der-p10-17 peptide (#60) for 30 minutes, and then serum sample U is transferred on conventional protein arrays spotted with crab, shrimp, dust mite and house dust mite antigens. In each of these arrays, different reaction blocks represent serum sample U incubated with different concentrations of Der-p10-17 (#60), where X1 is serum sample U incubated with the original concentration of Der-p10-17 (#60). X2 is serum sample U incubated with 2-fold dilution of the original concentration, X4 is serum sample U incubated with a 4-fold dilution and X8 is serum sample U incubated with an 8-fold dilution. The experiment protocol in Table 5A-5D and FIGS. 12A-12D may refer to the IgE immunofluorescence assay used in Table 4. The F532 nm intensity value of crabs, shrimps, dust mites, and house mites are shown respectively. Various concentrations of Der-p10-17 peptide (#60) are tested to evaluate the dependence of inhibition on the inhibitor peptide concentration. The results of the IgE inhibition experiments are presented in FIGS. 12A-12D and Tables 5A-5D.

[3] = tested on: binding between IgE in serum sample U and shrimp antigens; assay: IgE inhibition experiment, conventional protein array spotted with shrimp antigens; set-up: species or system human
Description: as §2, §3, §4

[4] = tested on: specific IgE in serum samples; assay: Serum samples analysis on peptide array (IgE immunofluorescence assay); format: binding, human
From the text: A plurality of peptide probes are synthesized according to each of the above peptide fragments of Der p1, Der p2, and Der p10. Theses synthesized peptide probes are spotted on a solid surface to construct a peptide array. The peptide array includes at least one reaction area, and each reaction area includes at least one reaction block. […] The peptide array of FIG. 11 includes at least one reaction area, and each reaction area includes 4 reaction blocks, namely R1, R2, R3, and R4.
Serum samples are used and labeled to evaluate the peptide array of the present embodiment. The labeled serum samples include 23 positive serum samples obtained from patients showing allergy symptoms, one negative serum sample, and one blank. Conventional protein arrays are also used in the test, probes for which being allergens extracted from allergenic substances derived from natural origins, such as crabs, shrimps, dust mites (Dermatophagoides farinae), house dust mites and storage mites (Blomia tropicalis). Group 10 allergens (tropomyosins) have been assumed to be a major cause of cross-reactivity between house dust mites and other invertebrates.
The sample serum is diluted with diluent buffer containing adequate amount of BSA, no-fat milk, and Tween-20. The peptide array of the present embodiment is incubated with each serum sample respectively at 37° C. for 1 hour. […]

[5] = tested on: binding between IgE in serum sample U and house dust mite antigens; assay: IgE inhibition experiment, conventional protein array spotted with house dust mite antigens; set-up: species or system human
Description: as §1

[6] = Block 2-X8, serum sample U pre-incubated 30 minutes with 8-fold dilution of peptide
[7] = Block 3-X4, 4-fold dilution of peptide
[8] = Block 4-X2, 2-fold dilution of peptide
[9] = Block 5-X1, original concentration of peptide

Q: ELDQTFAELTGY [Der-p10-17] was tested. Which “F532 nm intensity value, dust mites” value ([1]; Block 2-X8) did it give?
A: 5767

Q: And the “F532 nm intensity value, dust mites” value [1, 6]?
A: 5979

Q: And the “F532 nm intensity value, dust mites” value [1, 7]?
A: 4767

Q: What about the “F532 nm intensity value, dust mites” value [1, 8] of the same sequence?
A: 4428

Q: And the “F532 nm intensity value, dust mites” value [1, 9]?
A: 5475

Q: And the “F532 nm intensity value, crabs” value ([2]; Block 2-X8)?
A: 14893

Q: What about the “F532 nm intensity value, crabs” value [2, 6] of the same sequence?
A: 15148

Q: What about the “F532 nm intensity value, crabs” value ([2]; Block 3-X4, serum sample U pre-incubated with 4-fold dilution of peptide) of the same sequence?
A: 11803

Q: And the “F532 nm intensity value, crabs” value ([2]; Block 4-X2, serum sample U pre-incubated with 2-fold dilution of peptide)?
A: 10695

Q: What about the “F532 nm intensity value, crabs” value ([2]; Block 5-X1, serum sample U pre-incubated with original concentration of peptide) of the same sequence?
A: 13067

Q: And the “inhibition of IgE cross-linking / decrease of intensity values, crab” value ([2]; serum sample U)?
A: can inhibit the IgE cross-linking between shrimp and crab

Q: And the “F532 nm intensity value, shrimps” value ([3]; Block 2-X8)?
A: 16678

Q: And the “F532 nm intensity value, shrimps” value [3, 6]?
A: 17902

Q: And the “F532 nm intensity value, shrimps” value [3, 7]?
A: 14759

Q: And the “F532 nm intensity value, shrimps” value [3, 8]?
A: 14481

Q: And the “F532 nm intensity value, shrimps” value [3, 9]?
A: 15396

Q: What about the “inhibition of IgE cross-linking / decrease of intensity values, shrimp” value ([3]; serum sample U) of the same sequence?
A: can inhibit the IgE cross-linking between shrimp and crab

Q: What about the “binding of peptide probe to IgE in serum samples” value ([4]; peptide array) of the same sequence?
A: can bind to IgE in serum samples

Q: What about the “reactivity of serum sample U on the peptide array” value ([4]; serum sample U, Table 4) of the same sequence?
A: reactive

Q: And the “F532 nm intensity value, house dust mites” value [5, 6]?
A: 3288

Q: And the “F532 nm intensity value, house dust mites” value [5, 7]?
A: 3247

Q: What about the “F532 nm intensity value, house dust mites” value [5, 8] of the same sequence?
A: 3659

Q: And the “F532 nm intensity value, house dust mites” value [5, 9]?
A: 4288

Q: What about the “inhibition of binding between IgE and antigens extracted from natural house dust mites” value ([5]; serum sample U) of the same sequence?
A: can inhibit the binding between IgE and antigens extracted from natural house dust mites

Reference: patent publication US20170153247A1, “METHOD FOR RISK ASSESSMENT OF ALLERGIC REACTION” (Excelsior Bio-System Incorporation, priority 2015, published 2017)
